This passage reports TGI and GI50 results from PubChem BioAssay (NCI).

Test systems include SN12C renal; OVCAR-5 ovarian; K-562 leukemia; IGROV1 ovarian; UO-31 renal; M14 melanoma; SR leukemia; SF-268 CNS; MOLT-4 leukemia; OVCAR-3 ovarian.
What all share (experiment): NCI-60 cell line screen, 48 h

Values joined by “and” are separate entries in the source; they are usually repeats but may differ in a detail not shown here. Equal entries are not always repeated.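 Briefly, cells in 96-well plates were exposed to five compound concentrations for 48 h, and endpoints were estimated by linear interpolation. At the GI50, growth is halved. At the TGI there is no net growth.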

As to `CSc1nc(NC2CC2)c2c(n1)Sc1nc3ccccc3n1N=C2`, the TGI with SN12C renal is 33.4 µM; in the assay on OVCAR-5 ovarian, over 100 µM; with K-562 leukemia, over 100 µM; with IGROV1 ovarian, over 100 µM; with UO-31 renal, 44.4 µM; with M14 melanoma, over 100 µM. Moreover, the TGI in the assay on SR leukemia was over 100 µM; in the assay with SF-268 CNS it was 80.7 µM; in the assay with MOLT-4 leukemia it was over 100 µM; in the assay with OVCAR-3 ovarian it was 40.3 µM.
On to `O=C(O)c1cc(/C=C/c2ccc(O)c(O)c2)ccc1O`, for which the TGI in the assay with SN12C renal was over 100 µM; with OVCAR-5 ovarian, over 100 µM; in the assay on K-562 leukemia, 44.9 µM; with IGROV1 ovarian it was over 100 µM; in the assay with UO-31 renal it was over 100 µM; with M14 melanoma, over 100 µM. The TGI in the assay with SR leukemia, with SF-268 CNS, in the assay with MOLT-4 leukemia and in the assay on OVCAR-3 ovarian was over 100 µM in each case.
Regarding `C(=C/c1ccc2nc(-c3ccc(/C=C/C=N/NC4=NCCCN4)cc3)cn2c1)/C=N/NC1=NCCCN1`, the TGI is over 100 µM with SN12C renal; over 100 µM with OVCAR-5 ovarian; 79.9 µM in the assay with K-562 leukemia; over 100 µM with IGROV1 ovarian; over 100 µM in the assay with UO-31 renal; over 100 µM in the assay with M14 melanoma. In addition, the TGI was over 100 µM with SR leukemia, 54.7 µM in the assay on SF-268 CNS, over 100 µM with MOLT-4 leukemia and over 100 µM with OVCAR-3 ovarian.
With `Cc1cc(S(=O)(=O)Nc2nc(N)n(-c3ccccc3)n2)c(S)cc1Cl`, the TGI in the assay on SN12C renal, in the assay on OVCAR-5 ovarian, in the assay with K-562 leukemia, in the assay with IGROV1 ovarian, with UO-31 renal and in the assay on M14 melanoma was over 100 µM each time. In addition, the TGI in the assay with SR leukemia, with SF-268 CNS, with MOLT-4 leukemia and in the assay on OVCAR-3 ovarian was over 100 µM in each case.
For the compound `COC(=O)c1ccc2c(c1)CCN2C(=O)c1cc2c(cc1Br)OCO2`, the GI50 with SN12C renal was 3.21 µM; in the assay on K-562 leukemia, 0.824 µM; with IGROV1 ovarian, 0.455 µM; in the assay on UO-31 renal, 0.817 µM; in the assay with M14 melanoma, 0.652 µM; in the assay on SR leukemia, 0.366 µM. Besides, the GI50 in the assay with MOLT-4 leukemia is 0.896 µM; in the assay with OVCAR-3 ovarian, 0.363 µM. Besides, the TGI in the assay on SN12C renal was 48.3 µM and > 100 µM; in the assay with OVCAR-5 ovarian it was over 50 µM; in the assay with K-562 leukemia, 50 µM and > 100 µM; in the assay on IGROV1 ovarian it was 50 µM and > 100 µM; with UO-31 renal, 24.8 µM and 72.1 µM; in the assay on M14 melanoma, 6.9 µM and 40.4 µM. In addition, the TGI with SR leukemia was 50 µM and > 100 µM; with SF-268 CNS, 50 µM; in the assay with MOLT-4 leukemia it was 12.1 µM and > 100 µM; in the assay with OVCAR-3 ovarian it was 3.99 µM and 1.43 µM.
For `c1ccc2c(c1)N=c1ccccc1=P21c2ccccc2Nc2ccccc21`, the TGI in the assay on SN12C renal is 13.5 µM; with OVCAR-5 ovarian, 3.81 µM; in the assay on K-562 leukemia, over 100 µM; in the assay on IGROV1 ovarian, 10.6 µM; with UO-31 renal it was 27 µM; in the assay with M14 melanoma, 5.67 µM. Besides, the TGI came out at 1.75 µM in the assay with SR leukemia, 10.2 µM in the assay on SF-268 CNS, 1.67 µM in the assay with MOLT-4 leukemia and 1.57 µM with OVCAR-3 ovarian.
